One experiment concerns the target T1, rabbit TGR5 (Oryctolagus cuniculus, UniProt Q862A8).
T1 construct: expressed in transfected cells; host or cells: CHO cells
T1 sequence (Q862A8 1-330): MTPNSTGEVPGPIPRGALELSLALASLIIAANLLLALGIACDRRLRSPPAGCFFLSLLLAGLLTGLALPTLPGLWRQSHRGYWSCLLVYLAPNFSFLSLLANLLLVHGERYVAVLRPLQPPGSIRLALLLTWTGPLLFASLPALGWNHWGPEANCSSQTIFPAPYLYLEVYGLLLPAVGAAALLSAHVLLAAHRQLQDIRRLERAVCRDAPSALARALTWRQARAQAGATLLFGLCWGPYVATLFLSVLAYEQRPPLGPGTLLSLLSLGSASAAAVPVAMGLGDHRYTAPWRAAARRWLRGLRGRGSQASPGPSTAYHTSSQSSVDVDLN
Kind of experiment: cAMP production increasing activity in rabbit TGR5 expressing CHO cells. The format is cell-based. The conditions noted are these: Experimental Example 6; 2 μM; 10 μM lithocholic acid = 100%; average of 3 groups. How it is done:
As the assay buffer, Hank's balanced salt solution (HBSS, Invitrogen) supplemented with 0.1% bovine serum albumin (BSA, Sigma) and 0.2 mM 3-isobutyl-1-methylxanthine (IBMX, Sigma) was used. The cells were washed twice with the assay buffer and preincubated at 37° C. for 30 min. The cells were washed twice and test compound samples (2 μM) diluted with the assay buffer were added. The cells were incubated at 37° C. for 20 min. The culture supernatant was discarded, and the cAMP production amount was measured using a cAMP Screen System (ABI).

The test system of experiment [1] is mock CHO cells free of human TGR5 expression. Kind of experiment: cAMP production increasing activity in mock CHO cells free of human TGR5 expression. The format is cell-based. The conditions noted are these: test compounds 2 μM, average of 3 groups. The procedure: As the assay buffer, Hank's balanced salt solution (HBSS, Invitrogen) supplemented with 0.1% bovine serum albumin (BSA, Sigma) and 0.2 mM 3-isobutyl-1-methylxanthine (IBMX, Sigma) was used. The cells were washed twice with the assay buffer and preincubated at 37° C. for 30 min. The cells were washed twice, and test compound samples (10 μM) diluted with the assay buffer to various concentrations were added. The cells were incubated at 37° C. for 20 min. The culture supernatant was discarded, and the cAMP production amount was measured using a cAMP Screen System (ABI).

Experiment [2] concerns the target T2, human TGR5 (Homo sapiens, UniProt Q8TDU6).
T2 construct: expressed in transfected cells; host or cells: CHO cells
T2 sequence (Q8TDU6 1-330): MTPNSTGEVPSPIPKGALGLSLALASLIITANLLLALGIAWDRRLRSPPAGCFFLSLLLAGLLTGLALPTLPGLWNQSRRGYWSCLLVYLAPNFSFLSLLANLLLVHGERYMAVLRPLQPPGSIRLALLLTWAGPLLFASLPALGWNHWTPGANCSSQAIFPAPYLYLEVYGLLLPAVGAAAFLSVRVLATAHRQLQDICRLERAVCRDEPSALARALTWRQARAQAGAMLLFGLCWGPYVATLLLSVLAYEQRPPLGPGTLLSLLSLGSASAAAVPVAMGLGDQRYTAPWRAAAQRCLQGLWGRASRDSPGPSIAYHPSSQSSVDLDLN
Kind of experiment: cAMP production increasing activity in human TGR5 expressing CHO cells. Format: cell-based. The conditions noted are these: test compound 1 μM, 30 min; 1 μM lithocholic acid = 100%, no addition = 0%; average of 3 groups. How it is done:
As the assay buffer, Hank's balanced salt solution (HBSS, Invitrogen) supplemented with 0.1% bovine serum albumin (BSA, Sigma) and 0.5 mM 3-isobutyl-1-methylxanthine (IBMX, Sigma) was used. A test compound sample (1 μM) diluted with the assay buffer was added to the cells. The cells were incubated at 37° C. for 30 min. and the supernatant was suctioned. The intracellular cAMP amount increased by the stimulation of the test compound was quantitatively determined using a HitHunter™ EFC Cyclic AMP Chemiluminescence Assay Kit (ABI) kit.
(Changes in cAMP serve as a functional read-out for many G protein-coupled receptors.)

Another experiment addresses T3, rat TGR5 (Rattus norvegicus, UniProt Q80T02).
T3 construct: expressed in transfected cells; host or cells: CHO cells
T3 sequence (Q80T02 1-329): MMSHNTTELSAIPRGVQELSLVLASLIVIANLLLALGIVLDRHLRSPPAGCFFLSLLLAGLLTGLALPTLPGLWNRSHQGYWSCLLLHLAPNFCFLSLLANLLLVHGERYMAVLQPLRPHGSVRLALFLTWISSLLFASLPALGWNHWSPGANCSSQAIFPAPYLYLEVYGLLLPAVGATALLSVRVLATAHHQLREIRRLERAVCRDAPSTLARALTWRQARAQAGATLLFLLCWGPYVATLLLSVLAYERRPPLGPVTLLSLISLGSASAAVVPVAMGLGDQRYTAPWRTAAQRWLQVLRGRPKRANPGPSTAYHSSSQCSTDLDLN
Kind of experiment: cAMP production increasing activity in rat type TGR5 expressing CHO cells. The format is cell-based. The conditions noted are these: 0.5 h, read-out: cAMP producing activity (control %). How it is done:
(§1) After culture, the cells were detached with 0.5 mM EDTA/PBS, washed with PBS, and suspended in Buffer 1 (HBSS+0.1% BSA, 25 mM HEPES pH 7.3, 0.5 mM IBMX) at a density of 1×10^7 cells/ml. The obtained cell suspension (460 μl), anti-cAMP acceptor beads (23 μl) of AlphaScreen cAMP assay kit (Perkin Elmer) and Buffer 1 (667 μl) were mixed and dispensed to a white 96 well plate (Costar) by 10 μl. Then, a test compound diluted with Buffer 1 was added to each well by 10 μl. At this time, one row of the plate was free of the cell suspension but added with anti-cAMP acceptor beads (9 μl) and Buffer 1 (441 μl) alone, and serial dilutions of cAMP were added instead of the test compound and used as the standard. A mixture of the cell suspension and the test compound contained in the plate was allowed to react at room temperature for 30 min. […] The plate was shaken at room temperature for 2.5 hrs and fluorescence intensity was measured by Fusion α (Parkin Elmer), and the cAMP concentration of each well was calculated using the cAMP standard on each plate.

A further experiment deals with NCI-H716 cells. Kind of experiment: intracellular cAMP production increasing action in NCI-H716 cells. The format is cell-based, human. The conditions noted are these: 10 μM, 2 hrs; production amount in TLCA (50 μM) was 100%; Base 11. The procedure:
NCI-H716 (ATCC) was suspended in a medium (Dulbecco's Modified Eagle Medium (DMEM, Invitrogen) supplemented with 10% fetal bovine serum (Invitrogen), 100 U/ml penicillin and 100 μg/ml streptomycin), seeded in a 96 well plate, cultured for 2 days and used for cAMP production assay. As a cAMP assay buffer, modified Krebs-Ringer bicarbonate buffer (KRBH, 116 mM NaCl, 4.7 mM KCl, 1.2 mM KH2PO4, 1.2 MM MgSO4, 2.5 mM CaCl2, 25 mM NaHCO3, 24 mM HEPES pH 7.3), supplemented with glucose 5.5 mM, bovine serum albumin (BSA) 0.1%, and 3-isobutyl-1-methylxanthine (IBMX, Sigma) 1 mM, was used. The cells were washed once with cAMP assay buffer. Bile acids (50 μM) diluted with cAMP assay buffer or the compounds of the present invention (10 μM) were added thereto and the cells were incubated for 2 hrs. The culture supernatant was discarded, and the cAMP production amount was measured by cAMP Screen System (ABI). In the Table, Base means non-addition of a test compound.

Experiment [3] has as its system rat intestine primary culture cells. Description: GLP-1 secretion from rat intestine primary culture cells. The format is cell-based. The conditions noted are these: test compound 20 μM, 150 min. The procedure: Terminal ileum and colon mucous membrane were removed from rat (Wistar, male, Charles River Japan, Inc.) and subjected to an enzyme treatment to give a cell dispersion according to the following method.
The enzyme solution used was obtained by dissolving 5 mg/ml Collagenase (Sigma), 5 mg/ml Hyaluronidase (Sigma) and 0.5 mg/ml DNaseI (Sigma) in a medium. The medium used was Dulbecco's Modified Eagle Medium (DMEM, Invitrogen) supplemented with 4.5 g/l Glucose, 5% FBS (Invitrogen), 100 units/ml Penicillin (Invitrogen), 100 μg/ml Streptomycin (Invitrogen), 50 μg/ml Gentamicin (Invitrogen) and 20 mM Hepes (pH 7.3). After digestion by the enzyme solution at 37° C., the tissue sections were prepared into dispersed cells by passing through a pipette 7 times and the cells were collected. The collected cells were washed with a buffer (incubation buffer) obtained by adding 5.5 mM Glucose and 0.1% BSA to a modified Krebs-Ringer bicarbonate buffer (KRBH, 116 mM NaCl, 4.7 mM KCl, 1.2 mM KH2PO4, 1.2 mM MgSO4, 2.5 mM CaCl2, 25 mM NaHCO3, 24 mM HEPES, pH 7.3), and preincubated at 37° C. under 5% CO2 for 30 min. 0.1 μM Phorbol ester (Wako), 1% DPPIV inhibitor (Linco) and a test compound were added to the above-mentioned incubation buffer, and the obtained buffer was added to the cells after the aforementioned preincubation and incubated for 150 min. The culture supernatant was collected and cryopreserved. The concentration of GLP-1 released in the culture supernatant was measured using an ELISA kit (Linco).

Experiment [4] addresses T2, human TGR5. Kind of experiment: cAMP production increasing activity in human TGR5 expressing CHO cells. The format is cell-based. To be noted: read-out: EC50 value (concentration necessary to make the cAMP production amount 50%).
In a further experiment the test system is guinea pig TGR5. Kind of experiment: cAMP production increasing activity in guinea pig TGR5 expressing CHO cells. The format is cell-based. To be noted: test compound 2 μM; 10 μM lithocholic acid = 100%; average of 3 groups. The procedure: as §1, with “The guinea pig type TGR5 expressing CHO cells were seeded in one 150 cm^2 flask at 1×10^7 cells, and cultured overnight at 37° C., 5% CO2. After” for “After”

Where [5] appears, read: Experimental Example 5, Base 0.19.

Where only a bound is given, the exact number is not on record here.

Turning to `O=C(c1cc(C(F)(F)F)cc(C(F)(F)F)c1)N1CCOc2nccc(-c3ccccc3)c2C1` [Example 14C, 4-[3,5-bis(trifluoromethyl)benzoyl]-6-phenyl-2,3,4,5-tetrahydropyrido[3,2-f][1,4]oxazepine], the “cAMP production increasing activity (control %)” value is reported as 116 control % on rabbit TGR5 and 100 control % on human TGR5 [2]. The “cAMP production increasing activity” value in experiment [1] (setting [5]) was 0.17 pmol.
With `FC(F)(F)c1cc(CN2CCOc3nccc(-c4ccccc4)c3C2)cc(C(F)(F)F)c1` [Example 9C, 4-[3,5-bis(trifluoromethyl)benzyl]-6-phenyl-2,3,4,5-tetrahydropyrido[3,2-f][1,4]oxazepine], the “cAMP production increasing activity (control %)” value was 99 control % at rabbit TGR5 and 96 control % at human TGR5 [2]. Also, the activation at 2 µM on rat TGR5 stood at 112%. The “cAMP production increasing activity” value in experiment [1] (setting [5]) is 0.2 pmol. In addition, the “cAMP production increasing activity (%)” value in the experiment on NCI-H716 cells was found to be 109%.
Turning to `CC(C)(C)CN1C(=O)C(CC(=O)NCc2ccccc2F)N(C(=O)c2ccncc2)Cc2ccccc21` (centres unmarked) [Example 1B, N-(2-fluorobenzyl)-2-(4-isonicotinoyl-1-neopentyl-2-oxo-2,3,4,5-tetrahydro-1H-1,4-benzodiazepin-3-yl)acetamide], the “cAMP production increasing activity (control %)” value came out at 71.2 control % on rabbit TGR5 and 113 control % on human TGR5 [2]. Also, in experiment [1] (Experimental Example 4, Base 0.28), the “cAMP production increasing activity” value is 0.23 pmol.
With `CC(=O)NCc1cccc(C2OC(CC(=O)NCc3ccccc3F)C(=O)N(CC(C)(C)C)c3ccc(Cl)cc32)c1` (single isomer, unassigned; (+)) [Reference Example 33, (+)-2-[3,5-trans-5-[3-(acetylaminomethyl)phenyl]-7-chloro-1-neopentyl-2-oxo-1,2,3,5-tetrahydro-4,1-benzoxazepin-3-yl]-N-(2-fluorobenzyl)acetamide], the activation at 2 µM on rat TGR5 stood at 92%. The “GLP-1 (% relative to non-addition)” value in experiment [3] is reported as 201 % relative to non-addition. Further, the EC50 on human TGR5 [4] was less than 100 nM.
Turning to `FC(F)(F)c1cc(CN2CCCOc3nccc(-c4ccccc4)c3C2)cc(C(F)(F)F)c1.FC(F)(F)c1cc(CN2CCCOc3nccc(-c4ccccc4)c3C2)cc(C(F)(F)F)c1.O=S(=O)(O)O` [Example 18C, 5-[3,5-bis(trifluoromethyl)benzyl]-7-phenyl-3,4,5,6-tetrahydro-2H-pyrido[2,3-b][1,5]oxazocine ½sulfate], the “cAMP production increasing activity (control %)” value was 106 control % on rabbit TGR5 and 112 control % on human TGR5 [2]. For the same molecule, the “cAMP production increasing activity” value in experiment [1] (setting [5]) was 0.17 pmol.
As to `O=S(=O)(c1cc(C(F)(F)F)cc(C(F)(F)F)c1)N1CCCOc2nccc(-c3ccccc3)c2C1` [Example 23C, 5-{[3,5-bis(trifluoromethyl)phenyl]sulfonyl}-7-phenyl-3,4,5,6-tetrahydro-2H-pyrido[2,3-b][1,5]oxazocine], the activation at 2 µM on rat TGR5 was 148%. Moreover, the “GLP-1 (% relative to non-addition)” value in experiment [3] was 133 % relative to non-addition. The “cAMP producing activity (control %)” value in the experiment on guinea pig TGR5 amounted to 119 control %.
